The target of assay [1] is T1, GSK3β (Homo sapiens, UniProt P49841). As to the kind of experiment: biochemical. To be noted: GSK3β Ki (nM).
Procedure: (§1) The assay was initiated with the addition of ATP, following 15 minutes pre-incubation of enzyme and inhibitor at room temperature in the reaction mixture. The reaction was stopped after 30 minutes at room temperature by the addition of 50 μL of 80 mM EDTA.
Assay [2] has as its target CDK2/Cyclin E1 (Homo sapiens (Human), UniProt P24941). Kind of assay: CDK2/Cyclin E1 full length mobility shift assay. It is filed as biochemical.
Procedure: CDK2/Cyclin E1 Full Length Mobility Shift Assay
Wild-type CDK2/wild-type full length Cyclin E1 enzyme complex was produced in-house (baculoviral expression, LJIC-2080/LJIC-2103) and phosphorylated by CDK7/Cyclin H1/Mat1 enzyme complex with CDK2:CDK7 ratio of 50:1 (concentration mg/mL) in the presence of 10 mM MgCl2 and 5 mM ATP at room temperature for one hour. […] The assay was initiated with the addition of ATP, following a fifteen minutes pre-incubation of enzyme and inhibitor at room temperature in the reaction mixture. The reaction was stopped after 45 minutes at room temperature by the addition of 50 μL of 80 mM EDTA.
Assay [3] concerns the target T1, GSK3β. The note with it: read-out: GSK3β Ki.
Procedure: as §1

The source of these data is US11718603B2, “CDK2 inhibitors” (Pfizer Inc., priority 2019, dated 2023).

A word on the Ki: it is the dissociation constant of the complex between target and ligand, obtained from inhibition or displacement.

Like-named read-outs stand apart in the source and are kept apart here.

`Cc1ncc(CC(=O)Nc2cc([C@@H]3CC[C@H](OC(=O)N[C@@H]4CCOC[C@H]4C)C3)[nH]n2)s1` (single isomer, unassigned; isomer a) [Example 510, (1S,3R)-3-(3-{[(2-methyl-1,3-thiazol-5-yl)acetyl]amino}-1H-pyrazol-5-yl)cyclopentyl [(3S*,4R*)-3-methyltetrahydro-2H-pyran-4-yl]carbamate- Isomer A]: the Ki in assay [1] came out at 14 nM; in assay [2] it was 0.19 nM. The like results for `Cc1ncc(CC(=O)Nc2cc([C@@H]3CC[C@H](OC(=O)N[C@@H]4CCOC[C@H]4C)C3)[nH]n2)s1` (single isomer, unassigned; isomer b) [Example 511, (1S,3R)-3-(3-{[(2-methyl-1,3-thiazol-5-yl)acetyl]amino}-1H-pyrazol-5-yl)cyclopentyl [(3S*,4R*)-3-methyltetrahydro-2H-pyran-4-yl]carbamate- Isomer B] were, in that order, 4.74 nM and 1.52 nM. Consider `Cc1ncc(CC(=O)Nc2cc([C@H]3CC[C@@H](OC(=O)NC(C)C)C3)[nH]n2)s1` [Example 2, (1R,3S)-3-(3-{[(2-methyl-1,3-thiazol-5-yl)acetyl]amino}-1H-pyrazol-5-yl)cyclopentyl propan-2-ylcarbamate], for which the inhibition constant (Ki) in assay [2] amounted to 0.31 nM. Consider `CC[C@H](C)NC(=O)O[C@@H]1CC[C@H](c2cc(NC(=O)c3cc(COC)nn3C)n[nH]2)C1` [Example 14, (1R,3S)-3-[3-({[3-(methoxymethyl)-1-methyl-1H-pyrazol-5-yl]carbonyl}amino)-1H-pyrazol-5-yl]cyclopentyl (2S)-butan-2-ylcarbamate], for which the Ki in assay [3] stood at 294 nM; in assay [2] it was 0.27 nM. For the compound `COc1ccc(CC(=O)Nc2cc([C@@H]3CC[C@H](OC(=O)N4CCC4(C)C)C3)[nH]n2)cn1` [Example 145], in assay [2], the Ki amounted to 0.12 nM. In the case of `Cc1cc(CC(=O)Nc2cc([C@H]3CC[C@@H](OC(=O)N4CCCC[C@@H]4C)C3)[nH]n2)on1` [Example 640, (1R,3S)-3-(3-{[(3-methyl-1,2-oxazol-5-yl)acetyl]amino}-1H-pyrazol-5-yl)cyclopentyl(2S)-2-methylpiperidine-1-carboxylate], the inhibition constant (Ki) in assay [3] came out at 13.3 nM.
